Measurements: paper PMC10301603, “Potent and Selective Benzothiazole-Based Antimitotics with Improved Water Solubility: Design, Synthesis, and Evaluation as Novel Anticancer Agents” (Pharmaceutics, 2023)
Converted amounts (≈) assume the structure as drawn.

Legend:
[1] = tested on: HT-29 cells; assay: Cell growth inhibition (MTT) in the presence of 10 µM verapamil (sensitivity to MDR efflux pumps); format: cell-based, human; details: 10 µM verapamil (P-gp/MDR1 inhibitor)
Description: (§1) Cells were plated in 96-well plates (100 µL/well) at the following concentrations: 30,000 cells/mL (HepG2, U87 MG, T98G, C6, LNCaP, PC3, and HT-29 cells) or 15,000 cells/mL (HeLa and MCF-7 cells). Previous experiments were performed to choose the optimal cell concentration (70–80% confluence) and avoid the formation of cell aggregates. Cells were incubated in complete DMEM or RPMI 1640 medium (see above) at 37 °C and 5% CO2 atmosphere for 24 h to allow for cell attachment to the plate. Then, every compound was added (10 µL/well) to a final concentration of 10 µM. Non-treated cells were used as negative controls. The antiproliferative activity of compounds was measured 72 h after the treatments using the MTT reagent (3-[4,5-dimethylthiazol-2-yl]-2,5-diphenyltetrazolium bromide), (MTT Thiazolyl Blue Tetrazolium Bromide, Sigma-Aldrich, St. Louis, MO, USA) dissolved in PBS at 5 mg/mL. Compounds showing antiproliferative effects at 10 µM were selected to determine their IC50 value. For that purpose, compounds were used at different concentrations ranging from 10^−10 to 10^−2 M. Measurements were performed in triplicate, and each experiment was repeated three times. The IC50 value was determined for every compound using Origin software (OriginLab, Washington, USA). To study the sensitivity to MDR efflux pumps of compounds, the IC50 values were determined by following the same procedure but in the presence of verapamil (final concentration of 10 µM).

[2] = tested on: HEK-293 cells; assay: Cell growth inhibition assay (MTT), non-tumorigenic cells; format: cell-based, human; details: Homo sapiens, HEK293, 72 h after drug exposure, non-tumorigenic cell line
Description: (§2) The cell lines were obtained from ATTC (Manassas, VA, USA). HeLa (human cervix epithelioid carcinoma), MCF7 (human breast adenocarcinoma), HepG2 (human hepatocellular carcinoma), U87 MG (human glioblastoma), T98G (human glioblastoma), GL261 (murine glioma), LNCaP (human prostate cancer), PC-3 (human prostate cancer), and HEK-293 (human embryonic kidney) were grown in Dulbecco’s modified Eagle’s medium (DMEM, Gibco, Waltham, MA, USA), supplemented with 10% (v/v) heat-inactivated fetal bovine serum (HIFBS, Sigma-Aldrich, St. Louis, MO, USA)), 2 mM L-glutamine, 100 μg/mL streptomycin, and 100 units/mL penicillin (Gibco, Waltham, MA, USA) at 37 °C in saturated humidity atmosphere containing 95% air and 5% CO2. Cell line HT-29 (human colon carcinoma) was grown in Roswell Park Memorial Institute (RPMI) 1640 medium (Gibco, Whaltman, MA, USA) supplemented with 10% HIFBS, 100 μg/mL streptomycin, and 100 units/mL penicillin (Gibco, Whaltman, MA, USA) at 37 °C in humidified 95% air and 5% CO2 atmosphere. MycoAlert kit (Lonza, Norwest, Australia) was used to routinely check the presence of mycoplasma, and only mycoplasma-free cells were employed in the experiments.
as §1

[3] = tested on: HepG2 cells; assay: Cell growth inhibition assay (MTT); format: cell-based, human; details: Homo sapiens, HepG2, 72 h after drug exposure
Description: as §2, §1

[4] = tested on: HeLa cells; assay: Cell growth inhibition assay (MTT); format: cell-based, human; details: Homo sapiens, HeLa, 72 h after drug exposure
Description: as §2, §1

[5] = tested on: HT-29 cells; assay: Cell growth inhibition assay (MTT); format: cell-based, human; details: Homo sapiens, HT-29, 72 h after drug exposure
Description: as §2, §1

[6] = tested on: T98G cells; assay: Cell growth inhibition assay (MTT); format: cell-based, human; details: Homo sapiens, T98G, 72 h after drug exposure
Description: as §2, §1

[7] = tested on: LNCaP cells; assay: Cell growth inhibition assay (MTT); format: cell-based, human; details: Homo sapiens, LNCaP, 72 h after drug exposure
Description: as §2, §1

[8] = tested on: MCF7 cells; assay: Cell growth inhibition assay (MTT); format: cell-based, human; details: Homo sapiens, MCF7; MTT, 72 h after drug exposure
Description: as §2, §1

[9] = tested on: U87MG cells; assay: Cell growth inhibition assay (MTT); format: cell-based, human; details: Homo sapiens, U-87 MG; MTT, 72 h after drug exposure
Description: as §2, §1

[10] = tested on: PC-3 cells; assay: Cell growth inhibition assay (MTT); format: cell-based, human; details: Homo sapiens, PC-3, 72 h after drug exposure
Description: as §2, §1

[11] = tested on: bovine brain tubulin; assay: Tubulin polymerization inhibition (turbidimetry); format: biochemical; details: for Tubulin polymerization inhibition (in words): 10 µM; for % TPI: compounds tested at 10 µM, with respect to the negative control; for IC50: concentration inhibiting 50% of microtubular protein polymerization in vitro, read-out: TPI IC50
Description: Microtubular protein was isolated from calf brain following the modified Shelanski method, based on temperature-dependent assembly/disassembly of tubulin [45]. The protein was stored at −80 °C, and its concentration was determined using the Bradford method before each use. Tubulin polymerization, which occurs when heating a buffered tubulin sample from 4 °C to 37 °C, is accompanied by an increase in the absorbance (at 450 nm) of the sample that was monitored by a Helios α spectrophotometer. […] Then, the temperature was adjusted to 4 °C, and the temperature being shifted to 37 °C allowed for the assembly process of tubulin. The turbidity caused by tubulin polymerization was measured by the increased absorbance at 450 nm. The increase in absorbance obtained for the control sample (without the ligand), which we considered to be 100% tubulin polymerization (0% inhibition), compared with the increase in absorbance determined for the sample containing ligands yielded the degree of tubulin polymerization inhibition (TPI), which is expressed as a percentage value. For the compounds displaying TPI values over 50% at 10 µM, the IC50 value for TPI was calculated. Measurements were performed in triplicate in two independent experiments using microtubular protein from different preparations.

[12] = tested on: GL261 cells; assay: Cell growth inhibition assay (MTT); format: cell-based, murine; details: Mus musculus, GL261, 72 h after drug exposure
Description: as §2, §1

[13] = Aqueous solubility, shake-flask method; format: physicochemical; details: pH 7.0 buffer, pH 7, aqueous buffer, thermodynamic from solid, shaking flask, buffered media at pH 7.0, mean of three
Description: The aqueous solubility of compounds was measured in a Helios Alfa Spectrophotometer. Calibration lines at the maximum wavelength of absorbance were determined for each compound. Then, following the shake-flask method, a suspension of 5 mg of each compound in 500 µL in pH 7.0 buffer was stirred for 72 h at room temperature. The mixture was then filtrated over a […] filter to remove the insoluble fraction. The concentration of the compound in the resulting saturated solution was determined via UV absorbance measurement and interpolation in the calibration line. The aqueous solubility values are given as the average of three independent measurements.

Row | SMILES | IC50 [1] | IC50 [2] | IC50 [3] | IC50 [4] | IC50 [5] | IC50 [6] | IC50 [7] | IC50 [8] | IC50 [9] | IC50 [10] | Tubulin polymerization inhibition (in words) [11] | % TPI [11] | IC50 [11] | IC50 [12] | solubility at 72 h [13]
1 | COc1ccc2nc(NCc3ccc4ccccc4c3)sc2c1 [Compound 6, 6-methoxy-N-(naphthalen-2-ylmethyl)benzo[d]thiazol-2-amine] | > 10 µM | > 10 µM | 4.51 µM | 3.71 µM | > 10 µM | > 10 µM | 4.32 µM | 4.23 µM | 6.54 µM | > 10 µM | not able to inhibit tubulin polymerization | 7% | > 10 µM | 6.25 µM | –
2 | COc1ccc2nc(N(Cc3ccncc3)C(C)=O)sc2c1 [Compound 21, N-(6-methoxybenzo[d]thiazol-2-yl)-N-(pyridin-4-ylmethyl)acetamide] | 2.55 µM | > 10 µM | 1.49 µM | 1.22 µM | 2.23 µM | 2.3 µM | 1.81 µM | 1.97 µM | 1.27 µM | 2.63 µM | – | 41% | > 10 µM | 1.59 µM | 90 µg/mL (≈ 287 µM)
3 | COc1ccc2nc(N(Cc3ccc4ccccc4c3)C(C)=O)sc2c1 [Compound 24, N-(6-methoxybenzo[d]thiazol-2-yl)-N-(naphthalen-2-ylmethyl)acetamide] | > 10 µM | > 10 µM | > 10 µM | > 10 µM | > 10 µM | > 10 µM | > 10 µM | > 10 µM | > 10 µM | > 10 µM | not able to inhibit tubulin polymerization | 0% | > 10 µM | > 10 µM | < 9 µg/mL
4 | COc1ccc2nc(N(C=O)Cc3ccccc3)sc2c1 [Compound 17, N-benzyl-N-(6-methoxybenzo[d]thiazol-2-yl)formamide] | > 10 µM | > 10 µM | 5.55 µM | 3.4 µM | > 10 µM | > 10 µM | 4.01 µM | 5.02 µM | 5.27 µM | > 10 µM | – | 4% | > 10 µM | 6.41 µM | 12 µg/mL (≈ 40.2 µM)
5 | CC(=O)O[C@@]12CO[C@@H]1C[C@H](O)[C@@]1(C)C(=O)[C@H](O)C3=C(C)[C@@H](OC(=O)[C@H](O)[C@@H](NC(=O)OC(C)(C)C)c4ccccc4)C[C@@](O)([C@@H](OC(=O)c4ccccc4)[C@H]21)C3(C)C [DTX, docetaxel, reference compound] | – | 1.55 µM | 0.055 µM | 0.051 µM | 0.307 µM | 0.059 µM | 0.01 µM | 0.013 µM | 0.022 µM | 0.02 µM | – | – | – | 0.035 µM | –
6 | COc1ccc2nc(NCc3ccccc3)sc2c1 [Compound 5, N-benzyl-6-methoxybenzo[d]thiazol-2-amine] | > 10 µM | > 10 µM | 5.78 µM | 4.36 µM | > 10 µM | > 10 µM | 5.97 µM | 6.31 µM | 8.31 µM | > 10 µM | – | 0% | > 10 µM | 7.25 µM | 5 µg/mL (≈ 18.5 µM)
7 | COc1ccc(S(=O)(=O)Nc2cccnc2Nc2ccc(O)cc2)cc1 [ABT-751, reference compound] | – | 1.23 µM | 0.327 µM | 0.388 µM | 0.213 µM | 0.421 µM | 0.325 µM | 0.18 µM | 0.375 µM | 0.422 µM | – | – | 4.4 µM | 0.309 µM | –
8 | COc1ccc2nc(N(Cc3[nH]cnc3C)C(C)=O)sc2c1 [Compound 22, N-(6-methoxybenzo[d]thiazol-2-yl)-N-((4-methyl-1H-imidazol-5-yl)methyl)acetamide] | > 10 µM | > 10 µM | > 10 µM | > 10 µM | > 10 µM | > 10 µM | > 10 µM | > 10 µM | > 10 µM | > 10 µM | not able to inhibit tubulin polymerization | 0% | > 10 µM | > 10 µM | 171 µg/mL (≈ 540 µM)
9 | CCNC(=O)N(Cc1ccccc1)c1nc2ccc(OC)cc2s1 [Compound 11, 1-benzyl-3-ethyl-1-(6-methoxybenzo[d]thiazol-2-yl)urea] | > 10 µM | > 10 µM | 2.45 µM | 2.71 µM | > 10 µM | > 10 µM | 2.37 µM | 2.04 µM | 2.91 µM | > 10 µM | – | 6% | > 10 µM | 2.93 µM | 16 µg/mL (≈ 46.9 µM)
10 | COc1ccc2nc(N(Cc3ccccn3)C(C)=O)sc2c1 [Compound 19, N-(6-methoxybenzo[d]thiazol-2-yl)-N-(pyridin-2-ylmethyl)acetamide] | 2.93 µM | > 10 µM | 1.88 µM | 1.55 µM | 2.54 µM | 2.44 µM | 2.07 µM | 2.03 µM | 1.41 µM | 3.01 µM | – | 43% | > 10 µM | 1.38 µM | 87 µg/mL (≈ 278 µM)
11 | COc1ccc2nc(N(Cc3ccccc3)C(C)=O)sc2c1 [Compound 23, N-benzyl-N-(6-methoxybenzo[d]thiazol-2-yl)acetamide] | > 10 µM | > 10 µM | 4.29 µM | 3.9 µM | > 10 µM | > 10 µM | 4.95 µM | 6.3 µM | 7.51 µM | > 10 µM | – | 3% | > 10 µM | 6.33 µM | 13 µg/mL (≈ 41.6 µM)
